Results reported in patent US20260226068A1, “IMIDAZOTRIAZINE IL-17A MODULATORS AND USES THEREOF” (DICE ALPHA, INC., priority 2023, published 2026).

Assays:
IL-17A/A = molecular target: T1, IL-17A/A (Homo sapiens, UniProt Q16552); experiment: IL-17A/A HEK-Blue cell assay (SEAP reporter); assay type: cell-based; conditions: HEK-Blue IL-17A reporter cells, IL17A/A 5 ng/mL, 20 hours, SEAP read at A630; read-out: HEK-Blue IL17AA (IC50 for IL-17A/A inhibition)
T1 construct: purchased Genscript Z03228
T1 sequence (Q16552 24-155): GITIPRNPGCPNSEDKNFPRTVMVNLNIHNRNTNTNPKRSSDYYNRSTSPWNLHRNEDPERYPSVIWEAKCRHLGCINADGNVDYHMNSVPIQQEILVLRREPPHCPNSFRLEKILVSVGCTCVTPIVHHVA

IL-17A/F = molecular target: T2, IL-17A/F (Homo sapiens, UniProt Q16552+Q96PD4); experiment: IL-17A/F HEK-Blue cell assay (SEAP reporter); assay type: cell-based; conditions: HEK-Blue IL-17A reporter cells, IL17A/F 5 ng/mL, 20 hours, SEAP read at A630; read-out: HEK-Blue IL17AF (IC50 for IL-17A/F inhibition)
T2 construct: purchased R&D Systems
T2 sequence (Q16552 24-155): T1 sequence (Q16552 24-155)
T2 sequence (Q96PD4 31-163): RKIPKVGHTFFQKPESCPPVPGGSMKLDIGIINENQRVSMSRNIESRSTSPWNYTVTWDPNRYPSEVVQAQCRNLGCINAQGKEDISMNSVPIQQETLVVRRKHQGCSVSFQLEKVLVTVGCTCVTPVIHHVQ

| SMILES | IC50 (IL-17A/A) [nM] | IC50 (IL-17A/F) [nM] |
| --- | --- | --- |
| CCn1ncnc1C(=O)N[C@H](c1cn2nc(C[C@H]3C[C@@H](C(F)(F)F)CNC3=O)c(C3CCS(=O)(=O)CC3)nc2n1)C1CCC(F)(F)CC1 [Compound 248, N—((S)-(4,4-difluorocyclohexyl)(3-(1,1-dioxidotetrahydro-2H-thiopyran-4-yl)-2-(((3R,5R)-2-oxo-5-(trifluoromethyl)piperidin-3-yl)methyl)imidazo[1,2-b][1,2,4]triazin-6-yl)methyl)-1-ethyl-1H-1,2,4-triazole-5-carboxamide] | < 100 | > 1000 |
| O=C(N[C@H](c1cn2nc(C[C@H]3C[C@@H](C(F)(F)F)CNC3=O)c([C@H]3CCCOC3)nc2n1)[C@@H]1CCCC(F)(F)C1)c1nonc1C1CC1 [Compound 249] | < 100 | 100 to 1000 |
| CCn1nccc1C(=O)N[C@H](c1cn2nc(C[C@H]3C[C@@H](C(F)(F)F)CNC3=O)c(C34CCOC(C3)C4)nc2n1)C1CCC(F)(F)CC1 [Compound 250, N—((S)-(3-(2-oxabicyclo[3.1.1]heptan-5-yl)-2-(((3R,5R)-2-oxo-5-(trifluoromethyl)piperidin-3-yl)methyl)imidazo[1,2-b][1,2,4]triazin-6-yl)(4,4-difluorocyclohexyl)methyl)-1-ethyl-1H-pyrazole-5-carboxamide] | < 100 | 100 to 1000 |
| CCn1nccc1C(=O)N[C@H](c1cn2nc(C[C@H]3C[C@@H](C(F)(F)F)CNC3=O)c(C34COCC(C3)C4)nc2n1)C1CCC(F)(F)CC1 [Compound 253, N—((S)-(3-(3-oxabicyclo[3.1.1]heptan-1-yl)-2-(((3R,5R)-2-oxo-5-(trifluoromethyl)piperidin-3-yl)methyl)imidazo[1,2-b][1,2,4]triazin-6-yl)(4,4-difluorocyclohexyl)methyl)-1-ethyl-1H-pyrazole-5-carboxamide] | < 100 | 100 to 1000 |
| CCn1nccc1C(=O)N[C@H](c1cn2nc(C[C@H]3C[C@@H](C(F)(F)F)CNC3=O)c(C34CCCC(C3)OC4)nc2n1)C1CCC(F)(F)CC1 (stereo partly drawn) [Compound 254, N-((1S)-(3-(6-oxabicyclo[3.2.1]octan-1-yl)-2-(((3R,5R)-2-oxo-5-(trifluoromethyl)piperidin-3-yl)methyl)imidazo[1,2-b][1,2,4]triazin-6-yl)(4,4-difluorocyclohexyl)methyl)-1-ethyl-1H-pyrazole-5-carboxamide] | < 100 | 100 to 1000 |
| CCn1nccc1C(=O)N[C@H](c1cn2nc(C[C@H]3C[C@@H](C(F)(F)F)CNC3=O)c(C34COC(C3)C4)nc2n1)C1CCC(F)(F)CC1 [Compound 255, N—((S)-(3-(2-oxabicyclo[2.1.1]hexan-4-yl)-2-(((3R,5R)-2-oxo-5-(trifluoromethyl)piperidin-3-yl)methyl)imidazo[1,2-b][1,2,4]triazin-6-yl)(4,4-difluorocyclohexyl)methyl)-1-ethyl-1H-pyrazole-5-carboxamide] | < 100 | 100 to 1000 |
| CC(F)(F)c1nocc1C(=O)N[C@H](c1cn2nc(C[C@H]3C[C@@H](C(F)(F)F)CNC3=O)c(C3CCOCC3)nc2n1)C1CCC(F)(F)CC1 [Compound 260, N—((S)-(4,4-difluorocyclohexyl)(2-(((3R,5R)-2-oxo-5-(trifluoromethyl)piperidin-3-yl)methyl)-3-(tetrahydro-2H-pyran-4-yl)imidazo[1,2-b][1,2,4]triazin-6-yl)methyl)-3-(1,1-difluoroethyl)isoxazole-4-carboxamide] | < 100 | 100 to 1000 |
| CC(C)c1nc2nc([C@@H](NC(=O)c3ccnn3C)C3CCC(F)(F)CC3)cn2nc1C[C@H]1C[C@@H](C(F)(F)F)CNC1=O [Compound 261, N—((S)-(4,4-difluorocyclohexyl)(3-isopropyl-2-(((3R,5R)-2-oxo-5-(trifluoromethyl)piperidin-3-yl)methyl)imidazo[1,2-b][1,2,4]triazin-6-yl)methyl)-1-methyl-1H-pyrazole-5-carboxamide] | < 100 | 100 to 1000 |
| Cn1nccc1C(=O)N[C@H](c1cn2nc(C[C@H]3C[C@@H](C(F)(F)F)CNC3=O)c(C3CCC(F)(F)CC3)nc2n1)C1CCC(F)(F)CC1 [Compound 262, N—((S)-(4,4-difluorocyclohexyl)(3-(4,4-difluorocyclohexyl)-2-(((3R,5R)-2-oxo-5-(trifluoromethyl)piperidin-3-yl)methyl)imidazo[1,2-b][1,2,4]triazin-6-yl)methyl)-1-methyl-1H-pyrazole-5-carboxamide] | < 100 | 100 to 1000 |
| CCn1nccc1C(=O)N[C@H](c1cn2nc(C[C@H]3C[C@@H](C(F)(F)F)CNC3=O)c(C3(OC)CCOCC3)nc2n1)C1CCC(F)(F)CC1 [Compound 269, N—((S)-(4,4-difluorocyclohexyl)(3-(4-methoxytetrahydro-2H-pyran-4-yl)-2-(((3R,5R)-2-oxo-5-(trifluoromethyl)piperidin-3-yl)methyl)imidazo[1,2-b][1,2,4]triazin-6-yl)methyl)-1-ethyl-1H-pyrazole-5-carboxamide] | < 100 | > 1000 |
| CCn1nccc1C(=O)N[C@H](c1cn2nc(C[C@H]3C[C@@H](C(F)(F)F)CNC3=O)c(C3(OC)CCC(F)(F)CC3)nc2n1)C1CCC(F)(F)CC1 [Compound 270, N—((S)-(3-(4,4-difluoro-1-methoxycyclohexyl)-2-(((3R,5R)-2-oxo-5-(trifluoromethyl)piperidin-3-yl)methyl)imidazo[1,2-b][1,2,4]triazin-6-yl)(4,4-difluorocyclohexyl)methyl)-1-ethyl-1H-pyrazole-5-carboxamide] | < 100 | > 1000 |
| CCn1nccc1C(=O)N[C@H](c1cn2nc(C[C@H]3C[C@@H](C(F)(F)F)CNC3=O)c(C(C)(F)F)nc2n1)C1CCC(F)(F)CC1 [Compound 273, N—((S)-(4,4-difluorocyclohexyl)(3-(1,1-difluoroethyl)-2-(((3R,5R)-2-oxo-5-(trifluoromethyl)piperidin-3-yl)methyl)imidazo[1,2-b][1,2,4]triazin-6-yl)methyl)-1-ethyl-1H-pyrazole-5-carboxamide] | < 100 | > 1000 |
| CCn1nccc1C(=O)N[C@H](c1cn2nc(C[C@H]3C[C@@H](C(F)(F)F)CNC3=O)c(CCOC)nc2n1)C1CCC(F)(F)CC1 [Compound 276, N—((S)-(4,4-difluorocyclohexyl)(3-(2-methoxyethyl)-2-(((3R,5R)-2-oxo-5-(trifluoromethyl)piperidin-3-yl)methyl)imidazo[1,2-b][1,2,4]triazin-6-yl)methyl)-1-ethyl-1H-pyrazole-5-carboxamide] | < 100 | 100 to 1000 |
| Cn1nccc1C(=O)N[C@H](c1cn2nc(C[C@H]3C[C@@H](C(F)(F)F)CNC3=O)c(C3CCOCC3)nc2n1)[C@@H]1CCCC(F)(F)C1 [Compound 277, N—((S)—((R)-3,3-difluorocyclohexyl)(2-(((3R,5R)-2-oxo-5-(trifluoromethyl)piperidin-3-yl)methyl)-3-(tetrahydro-2H-pyran-4-yl)imidazo[1,2-b][1,2,4]triazin-6-yl)methyl)-1-methyl-1H-pyrazole-5-carboxamide] | < 100 | 100 to 1000 |
